Numbered stars: 1 amine (or outer) side, 2 acyl side, 3 side chain; on linkers, the order of the positions; unused ones are H or OH. Side chains are listed from the residue outwards. Peptide text beside a SMILES is read from it. * marks the point of attachment. C18 diacid = O=C(O)CCCCCCCCCCCCCCCCC(=O)*; γGlu = O=C(O)[C@H](CCC(=O)[*:2])N[*:1]; AEEA = NCCOCCOCC(=O)O
Test: Assay (II) PK i.v. minipig, in vivo half-life
Set-up: species or system Göttingen mini-pigs
Conditions: male, Göttingen, minipig, iv, Half-life minipig, Assay (II)
Summary of the method: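 Male Göttingen mini-pigs (18–22 kg, n=5) received 6 nmol/kg i.v. via central catheter, formulated in 50 mM K2HPO4, 0.05% tween 80, pH 8.0. EDTA plasma sampled pre-dose to 240 h, quantified by TFC/LC/MS/MS (MRM, range 1-2000 nmol/l); half-life from non-compartmental analysis per animal.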

| half-life [days] | Structure (SMILES) |
| --- | --- |
| 1.21 | CC[C@H](C)[C@H](NC(=O)[C@H](Cc1ccc(O)cc1)NC(=O)[C@H](CCCNC(=N)N)NC(=O)[C@H](CCCNC(=N)N)NC(=O)[C@H](CC(C)C)NC(=O)[C@H](CC(=O)O)NC(=O)[C@H](C)NC(=O)[C@H](C)NC(=O)[C@H](Cc1ccc(O)cc1)NC(=O)[C@H](CCC(N)=O)NC(=O)[C@H](C)NC(=O)[C@H](CCSC)NC(=O)[C@H](CCC(N)=O)NC(=O)[C@H](CCC(=O)O)NC(=O)[C@@H]1CCCN1C(=O)[C@@H](NC(=O)[C@H](C)NC(=O)[C@H](CC(N)=O)NC(=O)[C@H](CC(=O)O)NC(=O)CNC(=O)[C@@H]1CCCN1C(=O)[C@H](Cc1ccc(O)cc1)NC(=O)[C@H](CCCCNC(=O)COCCOCCNC(=O)COCCOCCNC(=O)CC[C@H](NC(=O)CCCCCCCCCCCCCCCCC(=O)O)C(=O)O)NC(=O)[C@@H]1CCCN1C(=O)[C@H](CCC(=O)O)NC(=O)[C@@H](N)CC(C)C)[C@@H](C)O)C(=O)N[C@@H](CC(N)=O)C(=O)N[C@@H](CCSC)C(=O)N[C@@H](CC(C)C)C(=O)N[C@H](C(=O)N[C@@H](CCCNC(=N)N)C(=O)N1CCC[C@H]1C(=O)N[C@@H](CCCNC(=N)N)C(=O)N[C@@H](Cc1ccc(O)cc1)C(N)=O)[C@@H](C)O [Compound BJ] |
| 2.25 | CC[C@H](C)[C@H](NC(=O)[C@H](Cc1ccc(O)cc1)NC(=O)[C@H](CCCNC(=N)N)NC(=O)[C@H](CCCNC(=N)N)NC(=O)[C@H](CC(C)C)NC(=O)[C@H](CC(=O)O)NC(=O)[C@H](C)NC(=O)[C@H](C)NC(=O)[C@H](Cc1ccc(O)cc1)NC(=O)[C@H](CCC(N)=O)NC(=O)[C@H](C)NC(=O)[C@H](CCSC)NC(=O)[C@H](CCC(N)=O)NC(=O)[C@H](CCC(=O)O)NC(=O)[C@@H]1CCCN1C(=O)[C@@H](NC(=O)[C@H](C)NC(=O)[C@H](CC(N)=O)NC(=O)[C@H](CC(=O)O)NC(=O)CNC(=O)[C@@H]1CCCN1C(=O)[C@H](Cc1ccc(O)cc1)NC(=O)[C@@H](NC(=O)[C@H](CCCCNC(=O)COCCOCCNC(=O)COCCOCCNC(=O)CC[C@H](NC(=O)CCCCCCCCCCCCCCCCC(=O)O)C(=O)O)NC(=O)[C@H](CCC(=O)O)NC(=O)[C@@H](N)CC(C)C)C(C)C)[C@@H](C)O)C(=O)N[C@@H](CC(N)=O)C(=O)N[C@@H](CCSC)C(=O)N[C@@H](CC(C)C)C(=O)N[C@H](C(=O)N[C@@H](CCCNC(=N)N)C(=O)N1CCC[C@H]1C(=O)N[C@@H](CCCNC(=N)N)C(=O)N[C@@H](Cc1ccc(O)cc1)C(N)=O)[C@@H](C)O [Compound BK] |
| 3.88 | CC[C@H](C)[C@H](NC(=O)[C@H](Cc1ccc(O)cc1)NC(=O)[C@H](CCCNC(=N)N)NC(=O)[C@H](CCCNC(=N)N)NC(=O)[C@H](CC(C)C)NC(=O)[C@H](CC(=O)O)NC(=O)[C@H](C)NC(=O)[C@H](C)NC(=O)[C@H](Cc1ccc(O)cc1)NC(=O)[C@H](CCC(N)=O)NC(=O)[C@H](C)NC(=O)[C@H](CCSC)NC(=O)[C@H](CCC(N)=O)NC(=O)[C@H](CCC(=O)O)NC(=O)[C@@H]1CCCN1C(=O)[C@@H](NC(=O)[C@H](C)NC(=O)[C@H](CC(N)=O)NC(=O)[C@H](CC(=O)O)NC(=O)CNC(=O)[C@@H]1CCCN1C(=O)[C@H](Cc1ccc(O)cc1)NC(=O)[C@@H](NC(=O)[C@@H]1CCCN1C(=O)[C@H](CCC(=O)O)NC(=O)[C@H](CC(C)C)NC(=O)[C@@H]1CCCN1)C(C)C)[C@@H](C)O)C(=O)N[C@@H](CC(N)=O)C(=O)N[C@@H](CCSC)C(=O)N[C@@H](CC(C)C)C(=O)N[C@@H](CCCCNC(=O)COCCOCCNC(=O)COCCOCCNC(=O)CC[C@H](NC(=O)CCCCCCCCCCCCCCCCC(=O)O)C(=O)O)C(=O)N[C@@H](CCCNC(=N)N)C(=O)N1CCC[C@H]1C(=O)N[C@@H](CCCNC(=N)N)C(=O)N[C@@H](Cc1ccc(O)cc1)C(N)=O [Compound B] (H-PLEPVYPGDNATPEQMAQYAADLRRYINMLK([AEEA-AEEA-γGlu-C18 diacid])RPRY-NH2; N-terminus and C-terminus assumed) |
| 3.92 | CC[C@H](C)[C@H](NC(=O)[C@H](Cc1ccc(O)cc1)NC(=O)[C@H](CCCNC(=N)N)NC(=O)[C@H](CCCNC(=N)N)NC(=O)[C@H](CC(C)C)NC(=O)[C@H](CC(=O)O)NC(=O)[C@H](C)NC(=O)[C@H](C)NC(=O)[C@H](Cc1ccc(O)cc1)NC(=O)[C@H](CCC(N)=O)NC(=O)[C@H](C)NC(=O)[C@H](CCSC)NC(=O)[C@H](CCC(N)=O)NC(=O)[C@H](CCC(=O)O)NC(=O)[C@@H]1CCCN1C(=O)[C@@H](NC(=O)[C@H](C)NC(=O)[C@H](CC(N)=O)NC(=O)[C@H](CC(=O)O)NC(=O)CNC(=O)[C@@H]1CCCN1C(=O)[C@H](Cc1ccc(O)cc1)NC(=O)[C@@H](NC(=O)[C@@H]1CCCN1C(=O)[C@H](CCC(=O)O)NC(=O)[C@H](CC(C)C)NC(=O)[C@@H]1CCCN1)C(C)C)[C@@H](C)O)C(=O)N[C@@H](CC(N)=O)C(=O)N[C@@H](CCSC)C(=O)N[C@@H](CCCCNC(=O)COCCOCCNC(=O)COCCOCCNC(=O)CC[C@H](NC(=O)CCCCCCCCCCCCCCCCC(=O)O)C(=O)O)C(=O)N[C@H](C(=O)N[C@@H](CCCNC(=N)N)C(=O)N1CCC[C@H]1C(=O)N[C@@H](CCCNC(=N)N)C(=O)N[C@@H](Cc1ccc(O)cc1)C(N)=O)[C@@H](C)O [Compound C] (H-PLEPVYPGDNATPEQMAQYAADLRRYINMK([AEEA-AEEA-γGlu-C18 diacid])TRPRY-NH2; N-terminus and C-terminus assumed) |
| 3.21 | CC[C@H](C)[C@H](NC(=O)[C@H](Cc1ccc(O)cc1)NC(=O)[C@H](CCCNC(=N)N)NC(=O)[C@H](CCCNC(=N)N)NC(=O)[C@H](CC(C)C)NC(=O)[C@H](CC(=O)O)NC(=O)[C@H](C)NC(=O)[C@H](C)NC(=O)[C@H](Cc1ccc(O)cc1)NC(=O)[C@H](CCC(N)=O)NC(=O)[C@H](C)NC(=O)[C@H](CCSC)NC(=O)[C@H](CCC(N)=O)NC(=O)[C@H](CCC(=O)O)NC(=O)[C@@H]1CCCN1C(=O)[C@@H](NC(=O)[C@H](C)NC(=O)[C@H](CC(N)=O)NC(=O)[C@H](CC(=O)O)NC(=O)CNC(=O)[C@@H]1CCCN1C(=O)[C@H](Cc1ccc(O)cc1)NC(=O)[C@@H](NC(=O)[C@@H]1CCCN1C(=O)[C@H](CCC(=O)O)NC(=O)[C@H](CC(C)C)NC(=O)[C@@H]1CCCN1)C(C)C)[C@@H](C)O)C(=O)N[C@@H](CC(N)=O)C(=O)N[C@@H](CCCCNC(=O)COCCOCCNC(=O)COCCOCCNC(=O)CC[C@H](NC(=O)CCCCCCCCCCCCCCCCC(=O)O)C(=O)O)C(=O)N[C@@H](CC(C)C)C(=O)N[C@H](C(=O)N[C@@H](CCCNC(=N)N)C(=O)N1CCC[C@H]1C(=O)N[C@@H](CCCNC(=N)N)C(=O)N[C@@H](Cc1ccc(O)cc1)C(N)=O)[C@@H](C)O [Compound D] (H-PLEPVYPGDNATPEQMAQYAADLRRYINK([AEEA-AEEA-γGlu-C18 diacid])LTRPRY-NH2; N-terminus and C-terminus assumed) |

From patent publication US20150141336A1, “Pancreatic Peptide Compounds and Use” (Novo Nordisk A/S, priority 2012, published 2015)
